# Laboratory results reported in US8354387B2, “Methods and compositions for delivering siRNA into mammalian cells” (Centre National de la Recherche Scientifique, priority 2004, dated 2013).
# Legend:
# GAPDH = GAPDH protein levels by Western blotting after siRNA transfection; type: cell-based, human; settings: for reduction of GAPDH protein levels: Hs68, 30 hrs post transfection
# Experimental: FIG. 4: MPG-mediated delivery of siRNA induces a robust biological response. A/ MPG mediated delivery of siRNA targeting luciferase gene. MPG/siRNA or MPG^ΔNLS/DNA complexes were formed in DMEM at a charge ratio 10:1 and incubated for 30 min at 37° C., then overlaid onto Cos-7 or HeLa cells grown to 60% confluence and previously transfected with the pRL-SV40 plasmid (Promega) encoding the reporter gene luciferase under control of an SV40 promoter. After 30 min incubation at 37° C., 1 ml of fresh DMEM supplemented with 10% fetal calf serum was added onto the cells. Luciferase activity was measured 48 hrs after transfection. Transfections were also performed with Oligofectamine™ as a standard. Control experiments were performed with either naked siRNA or using a mismatch siRNA (dashed bars). B/ MPG-mediated delivery of siRNA targeting GAPDH gene: Western blot analysis. Different concentrations of siRNA (25, 50, 100 nM) were transfected with either MPG or MPG^ΔNLS and the levels of GAPDH protein were analyzed by Western blotting 30 hrs post transfection. Actin was used as a control to normalize protein loading. C/ MPG-mediated delivery of siRNA targeting GAPDH gene: Northern blot analysis. The kinetics of siRNA (50 nM)-induced degradation of GAPDH mRNA following transfection with either MPG or MPG^ΔNLS were analyzed by Northern blotting. Actin was used as a control to normalize mRNA levels in each sample. […]
# To further understand the impact of the NLS in MPG, we examined the biological response of an siRNA targeting the GAPDH gene following transfection into human fibroblasts (Hs68). […] Different concentrations of siRNA (25, 50, 100 nM) were transfected with either MPG or MPG^ΔNLS and the levels of GAPDH protein were analyzed by Western blotting 30 hrs post transfection. […] The kinetics of siRNA-induced degradation of GAPDH mRNA following transfection with either MPG or MPG^ΔNLS were analyzed by Northern blotting. […]
# importin α = experiment: In vitro binding of carrier/DNA complexes to immobilized GST-importin α; settings: 1 hr at 25° C., agarose gel
# Experimental: FIG. 2: The NLS of MPG is essential for nuclear translocation: A/ Purified GST-importin α and β were coupled onto GST Sepharose resin and incubated in batch with MPG/DNA or MPG^ΔNLS/DNA complexes for 1 hr, extensively washed and incubated with […] glutathione to elute the complexes. DNA was then extracted and analyzed by agarose gel electrophoresis (0.8%). […] B/ Delivery of pRL-SV40 plasmid: MPG/DNA (black boxes) or MPG^ΔNLS/DNA (grey boxes) complexes formed at a charge ratio of 5/1 with 100 ng pRL-SV40 plasmid encoding the reporter gene luciferase were overlaid onto synchronized or arrested (-FCS) human fibroblasts (Hs68). Luciferase activity was monitored 12 hrs and 24 hrs after release from synchrony, or after 24 hrs for arrested cells and 48 hrs for asynchronous cells. […]
# Plasmids for the expression of recombinant GST-fusion protein importin α and importin β were kindly provided by B. Cullen. […] DNA was then extracted from the complexes with phenol-chloroform, followed by ethanol precipitation, and finally analyzed by agarose gel electrophoresis (0.8%).
# MPG peptide is derived from the nuclear localization sequence of the SV 40 large T antigen and from the fusion peptide domain of HIV-1 gp41 protein (17). […] Then, both bound and unbound fractions were analyzed by agarose gel electrophoresis.
Sequence,reduction of GAPDH protein levels (GAPDH; 25 nM siRNA),"efficiency relative to wild-type MPG (GAPDH; GAPDH siRNA, Hs68)",interaction of carrier/DNA complex with importin α (importin α),reduction of GAPDH protein levels (GAPDH; 100 nM siRNA)
"GALFLGFLGAAGSTMGAWSQPKSKRKV (carrier peptide) [MPG^ΔNLS, MPG variant with single mutation of the second lysine residue in the NLS motif to serine]",80%,at least 2 fold,dramatically reduced,–
"GALFLGFLGAAGSTMGAWSQPKKKRKV (carrier peptide) [MPG, bipartite amphipathic peptide derived from fusion peptide domain of HIV-1 gp41 and NLS of SV40 large T antigen]",–,–,significantly interacted specifically with importin α,60%
